By IC50 is commonly meant the concentration at which inhibition is half-maximal.

Bounds are passed on as bounds.

For this test, the target named is recombinant EZH2-641F complex (EZH2 Y641F/EED/SUZ12/RbAp48/AEBP2) (Homo sapiens (Human), UniProt Q15910, Y641F). In words: EZH2 Histone Methyl Transferase Assay (scintillation proximity assay). The settings on record: 350 nM histone peptide substrate, 500 nM 3H-SAM, 3 hours room temperature. The class given is biochemical. The gist of the method: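 Radiometric SPA with EZH2 Y641F/EED/SUZ12/RbAp48/AEBP2 complex (5 nM pure or 15 nM in-house), 350 nM biotinylated K(Me2) histone peptide and 500 nM [3H]-SAM in Tris pH 9.0, 3 h at room temperature. Compounds were tested at eleven concentrations; EC50 came from non-linear regression.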
Sequence of recombinant EZH2-641F complex (EZH2 Y641F/EED/SUZ12/RbAp48/AEBP2) (Q15910 whole entry Y641F): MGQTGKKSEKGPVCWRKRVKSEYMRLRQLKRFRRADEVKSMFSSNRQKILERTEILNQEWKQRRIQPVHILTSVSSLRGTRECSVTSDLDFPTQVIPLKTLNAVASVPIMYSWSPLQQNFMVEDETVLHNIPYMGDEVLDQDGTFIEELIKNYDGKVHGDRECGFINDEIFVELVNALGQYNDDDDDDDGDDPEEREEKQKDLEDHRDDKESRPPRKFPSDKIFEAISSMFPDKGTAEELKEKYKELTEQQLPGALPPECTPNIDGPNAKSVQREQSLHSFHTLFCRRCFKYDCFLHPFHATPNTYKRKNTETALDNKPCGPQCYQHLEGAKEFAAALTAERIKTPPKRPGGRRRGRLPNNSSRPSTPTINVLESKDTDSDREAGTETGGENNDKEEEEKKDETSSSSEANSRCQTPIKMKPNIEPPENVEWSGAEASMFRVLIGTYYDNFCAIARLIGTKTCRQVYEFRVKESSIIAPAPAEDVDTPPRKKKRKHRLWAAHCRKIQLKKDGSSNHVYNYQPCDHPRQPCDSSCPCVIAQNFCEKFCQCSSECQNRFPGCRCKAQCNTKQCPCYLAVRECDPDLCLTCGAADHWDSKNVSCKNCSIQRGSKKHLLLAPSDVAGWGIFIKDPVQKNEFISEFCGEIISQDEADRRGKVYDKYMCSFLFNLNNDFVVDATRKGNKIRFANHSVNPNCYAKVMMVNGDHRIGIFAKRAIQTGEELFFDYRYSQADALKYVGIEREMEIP
Sequence of recombinant EZH2-641F complex (EZH2 Y641F/EED/SUZ12/RbAp48/AEBP2) (O75530 whole entry partner): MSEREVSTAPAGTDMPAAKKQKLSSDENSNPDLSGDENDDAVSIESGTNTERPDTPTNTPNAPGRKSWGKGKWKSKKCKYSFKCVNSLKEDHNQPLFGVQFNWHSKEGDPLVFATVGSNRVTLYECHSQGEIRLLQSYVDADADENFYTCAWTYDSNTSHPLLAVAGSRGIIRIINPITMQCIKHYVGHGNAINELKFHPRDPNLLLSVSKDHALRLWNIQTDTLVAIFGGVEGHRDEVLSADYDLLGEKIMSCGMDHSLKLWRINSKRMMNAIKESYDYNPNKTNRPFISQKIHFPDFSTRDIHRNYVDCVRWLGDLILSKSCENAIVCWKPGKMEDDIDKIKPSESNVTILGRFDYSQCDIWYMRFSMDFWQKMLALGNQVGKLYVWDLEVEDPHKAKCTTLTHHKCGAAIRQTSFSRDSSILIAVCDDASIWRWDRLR
Sequence of recombinant EZH2-641F complex (EZH2 Y641F/EED/SUZ12/RbAp48/AEBP2) (Q15022 whole entry partner): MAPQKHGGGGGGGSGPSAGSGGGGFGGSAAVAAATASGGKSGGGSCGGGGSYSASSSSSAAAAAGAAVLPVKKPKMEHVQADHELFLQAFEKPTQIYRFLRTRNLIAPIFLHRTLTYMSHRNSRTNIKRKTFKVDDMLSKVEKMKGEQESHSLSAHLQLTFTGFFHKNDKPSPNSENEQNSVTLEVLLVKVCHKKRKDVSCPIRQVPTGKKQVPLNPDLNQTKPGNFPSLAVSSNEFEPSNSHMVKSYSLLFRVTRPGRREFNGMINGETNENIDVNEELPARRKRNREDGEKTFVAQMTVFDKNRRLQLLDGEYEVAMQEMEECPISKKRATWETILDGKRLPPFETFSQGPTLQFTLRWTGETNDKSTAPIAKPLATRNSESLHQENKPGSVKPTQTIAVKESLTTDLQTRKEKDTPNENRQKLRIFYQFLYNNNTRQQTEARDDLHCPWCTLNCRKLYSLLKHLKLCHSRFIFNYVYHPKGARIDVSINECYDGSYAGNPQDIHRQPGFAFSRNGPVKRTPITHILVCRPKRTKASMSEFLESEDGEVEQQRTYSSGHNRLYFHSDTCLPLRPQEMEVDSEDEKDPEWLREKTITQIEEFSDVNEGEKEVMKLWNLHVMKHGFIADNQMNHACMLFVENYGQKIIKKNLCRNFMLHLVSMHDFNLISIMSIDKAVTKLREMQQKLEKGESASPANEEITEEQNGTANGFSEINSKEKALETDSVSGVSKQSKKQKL
Sequence of recombinant EZH2-641F complex (EZH2 Y641F/EED/SUZ12/RbAp48/AEBP2) (Q09028 whole entry partner): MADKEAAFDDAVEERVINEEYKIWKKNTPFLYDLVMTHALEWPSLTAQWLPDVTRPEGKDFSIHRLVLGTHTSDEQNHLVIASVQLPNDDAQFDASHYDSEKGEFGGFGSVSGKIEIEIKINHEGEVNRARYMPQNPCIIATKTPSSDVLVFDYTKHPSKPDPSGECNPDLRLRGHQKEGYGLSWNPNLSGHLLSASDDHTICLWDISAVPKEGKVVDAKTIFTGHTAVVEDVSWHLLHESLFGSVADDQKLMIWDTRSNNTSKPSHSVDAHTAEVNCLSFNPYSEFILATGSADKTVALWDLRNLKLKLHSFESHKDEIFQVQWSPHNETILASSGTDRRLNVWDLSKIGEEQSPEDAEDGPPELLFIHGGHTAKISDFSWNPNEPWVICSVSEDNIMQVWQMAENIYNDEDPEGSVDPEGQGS
Sequence of recombinant EZH2-641F complex (EZH2 Y641F/EED/SUZ12/RbAp48/AEBP2) (Q6ZN18 whole entry partner): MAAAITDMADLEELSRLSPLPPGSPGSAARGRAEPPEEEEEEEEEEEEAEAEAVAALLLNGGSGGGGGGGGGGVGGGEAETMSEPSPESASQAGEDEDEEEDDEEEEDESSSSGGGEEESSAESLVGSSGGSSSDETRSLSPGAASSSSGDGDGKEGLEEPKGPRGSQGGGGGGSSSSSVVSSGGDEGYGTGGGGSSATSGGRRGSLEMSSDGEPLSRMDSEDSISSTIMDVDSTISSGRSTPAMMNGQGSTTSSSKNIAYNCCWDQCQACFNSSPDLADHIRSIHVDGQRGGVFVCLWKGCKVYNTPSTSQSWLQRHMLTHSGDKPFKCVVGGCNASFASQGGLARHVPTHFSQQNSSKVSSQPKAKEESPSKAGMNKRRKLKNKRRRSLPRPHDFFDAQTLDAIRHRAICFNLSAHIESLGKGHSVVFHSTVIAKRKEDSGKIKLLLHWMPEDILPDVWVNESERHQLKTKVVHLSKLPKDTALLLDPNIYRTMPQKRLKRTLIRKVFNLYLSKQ
Consider `C=CC1(C)Cc2cc(C(=O)NCc3c(C)cc(C)[nH]c3=O)cc(-c3ccc(OC)nc3)c2O1` (centres unmarked) [Example 56, N-((4,6-Dimethyl-2-oxo-1,2-dihydropyridin-3-yl)methyl)-7-(6-methoxypyridin-3-yl)-2-methyl-2-vinyl-2,3-dihydrobenzofuran-5-carboxamide], for which the IC50 was over 1000 nM. As for `C=CC1(C)Cc2cc(C(=O)NCc3c(C)cc(C)[nH]c3=O)cc(Br)c2O1` (centres unmarked) [Example 57, 7-Bromo-N-((4,6-dimethyl-2-oxo-1,2-dihydropyridin-3-yl)methyl)-2-methyl-2-vinyl-2,3-dihydrobenzofuran-5-carboxamide], the IC50 was over 1000 nM. On to `C=CC1(C)Cc2cc(C(=O)NCc3c(C)cc(C)[nH]c3=O)cc(-c3ccc(CN4CCOCC4)cc3)c2O1` (centres unmarked) [Example 58, N-((4,6-Dimethyl-2-oxo-1,2-dihydropyridin-3-yl)methyl)-2-methyl-7-(4-(morpholinomethyl)phenyl)-2-vinyl-2,3-dihydrobenzofuran-5-carboxamide], for which the IC50 is over 1000 nM. Consider `C=CC1(C)Cc2cc(C(=O)NCc3c(C)cc(C)[nH]c3=O)cc(-c3ccc(N4CCNCC4)nc3)c2O1` (centres unmarked) [Example 59, N-((4,6-Dimethyl-2-oxo-1,2-dihydropyridin-3-yl)methyl)-2-methyl-7-(6-(piperazin-1-yl)pyridin-3-yl)-2-vinyl-2,3-dihydrobenzofuran-5-carboxamide], for which the IC50 was under 500 nM. Take `C=CC1(C)Cc2cc(C(=O)NCc3c(C)cc(C)[nH]c3=O)cc(-c3cnc(N4CCN(C(=O)OC(C)(C)C)CC4)nc3)c2O1` (centres unmarked) [Example 60, t-Butyl 4-(5-(5-(((4,6-dimethyl-2-oxo-1,2-dihydropyridin-3-yl)methyl)carbamoyl)-2-methyl-2-vinyl-2,3-dihydrobenzofuran-7-yl)pyrimidin-2-yl)piperazine-1-carboxylate]: the IC50 was over 1000 nM. With `CCC1(C)Cc2cc(C(=O)NCc3c(C)cc(C)[nH]c3=O)cc(-c3ccc(OC)nc3)c2O1` (centres unmarked) [Example 61, N-((4,6-Dimethyl-2-oxo-1,2-dihydropyridin-3-yl)methyl)-2-ethyl-7-(6-methoxypyridin-3-yl)-2-methyl-2,3-dihydrobenzofuran-5-carboxamide], the IC50 was over 1000 nM.

On to `CCC1(C)Cc2cc(C(=O)NCc3c(C)cc(C)[nH]c3=O)cc(-c3ccc(N4CCNCC4)nc3)c2O1` (centres unmarked) [Example 62, N-((4,6-Dimethyl-2-oxo-1,2-dihydropyridin-3-yl)methyl)-2-ethyl-2-methyl-7-(6-(piperazin-1-yl)pyridin-3-yl)-2,3-dihydrobenzofuran-5-carboxamide], for which the IC50 was under 500 nM. Consider `CCC1(C)Cc2cc(C(=O)NCc3c(C)cc(C)[nH]c3=O)cc(-c3ccc(C)cc3)c2O1` (centres unmarked) [Example 63, N-((4,6-Dimethyl-2-oxo-1,2-dihydropyridin-3-yl)methyl)-2-ethyl-2-methyl-7-(p-tolyl)-2,3-dihydrobenzofuran-5-carboxamide], for which the IC50 is over 1000 nM. For `Cc1cc(C)c(CNC(=O)c2cc(Br)c3c(c2)CC2(CCCC2)O3)c(=O)[nH]1` [Example 70, 7-Bromo-N-((4,6-dimethyl-2-oxo-1,2-dihydropyridin-3-yl)methyl)-3H-spiro[benzofuran-2,1′-cyclopentane]-5-carboxamide], the IC50 was over 1000 nM.

Turning to `COc1ccc(-c2cc(C(=O)NCc3c(C)cc(C)[nH]c3=O)cc3c2OC2(CCCC2)C3)cn1` [Example 71, N-((4,6-Dimethyl-2-oxo-1,2-dihydropyridin-3-yl)methyl)-7-(6-methoxypyridin-3-yl)-3H-spiro[benzofuran-2,1′-cyclopentane]-5-carboxamide], the IC50 was over 1000 nM. With `Cc1cc(C)c(CNC(=O)c2cc3c(c(-c4ccc(N5CCNCC5)nc4)c2)OC2(CCCC2)C3)c(=O)[nH]1` [Example 72, N-((4,6-Dimethyl-2-oxo-1,2-dihydropyridin-3-yl)methyl)-7-(6-(piperazin-1-yl)pyridin-3-yl)-3H-spiro[benzofuran-2,1′-cyclopentane]-5-carboxamide] the figure was under 500 nM; with `Cc1cc(C)c(CNC(=O)c2cc3c(c(-c4cnc(N5CCN(C(=O)OC(C)(C)C)CC5)nc4)c2)OC2(CCCC2)C3)c(=O)[nH]1` [Example 73, tert-Butyl 4-(5-(5-(((4,6-dimethyl-2-oxo-1,2-dihydropyridin-3-yl)methyl)carbamoyl)-3H-spiro[benzofuran-2,1′-cyclopentan]-7-yl)pyrimidin-2-yl)piperazine-1-carboxylate], over 1000 nM. For the compound `Cc1cc(C)c(CNC(=O)c2cc3c(c(-c4ccc(CN5CCCCC5)cc4)c2)OC2(CCCC2)C3)c(=O)[nH]1` [Example 74, N-((4,6-Dimethyl-2-oxo-1,2-dihydropyridin-3-yl)methyl)-7-(4-(piperidin-1-ylmethyl)phenyl)-3H-spiro[benzofuran-2,1′-cyclopentane]-5-carboxamide], the IC50 is over 1000 nM. On to `Cc1cc(C)c(CNC(=O)c2cc(Br)c3c(c2)C2(CCCC2)CO3)c(=O)[nH]1` [Example 75, 7-Bromo-N-((4,6-dimethyl-2-oxo-1,2-dihydropyridin-3-yl)methyl)-2H-spiro[benzofuran-3,1′-cyclopentane]-5-carboxamide], for which the concentration for half-maximal inhibition (IC50) was over 1000 nM.

For the compound `COc1ccc(-c2cc(C(=O)NCc3c(C)cc(C)[nH]c3=O)cc3c2OCC32CCCC2)cn1` [Example 76, N-((4,6-Dimethyl-2-oxo-1,2-dihydropyridin-3-yl)methyl)-7-(6-methoxypyridin-3-yl)-2H-spiro[benzofuran-3,1′-cyclopentane]-5-carboxamide], the IC50 was over 1000 nM. With `Cc1cc(C)c(CNC(=O)c2cc(-c3ccc(N4CCNCC4)nc3)c3c(c2)C2(CCCC2)CO3)c(=O)[nH]1` [Example 77, N-((4,6-Dimethyl-2-oxo-1,2-dihydropyridin-3-yl)methyl)-7-(6-(piperazin-1-yl)pyridin-3-yl)-2H-spiro[benzofuran-3,1′-cyclopentane]-5-carboxamide], the IC50 was over 1000 nM.

Turning to `Cc1cc(C)c(CNC(=O)c2cc(-c3ccc(CN4CCCCC4)cc3)c3c(c2)C2(CCCC2)CO3)c(=O)[nH]1` [Example 78, N-((4,6-Dimethyl-2-oxo-1,2-dihydropyridin-3-yl)methyl)-7-(4-(piperidin-1-ylmethyl)phenyl)-2H-spiro[benzofuran-3,1′-cyclopentane]-5-carboxamide], the IC50 is over 1000 nM.

Take `Cc1cc(C)c(CNC(=O)c2cc(Br)c3c(c2)CC(C(C)C)O3)c(=O)[nH]1` (centres unmarked) [Example 79, 7-Bromo-N-((4,6-dimethyl-2-oxo-1,2-dihydropyridin-3-yl)methyl)-2-isopropyl-2,3-dihydrobenzofuran-5-carboxamide]: the IC50 is over 1000 nM. Take `Cc1cc(C)c(CNC(=O)c2cc3c(c(-c4ccc(N5CCNCC5)nc4)c2)OC(C(C)C)C3)c(=O)[nH]1` (centres unmarked) [Example 80, N-((4,6-Dimethyl-2-oxo-1,2-dihydropyridin-3-yl)methyl)-2-isopropyl-7-(6-(piperazin-1-yl)pyridin-3-yl)-2,3-dihydrobenzofuran-5-carboxamide]: the IC50 is over 1000 nM.

With `CC1=C(C)Cc2cc(C(=O)NCc3c(C)cc(C)[nH]c3=O)cc(Br)c2OC1` [Example 81, 9-Bromo-N-((4,6-dimethyl-2-oxo-1,2-dihydropyridin-3-yl)methyl)-3,4-dimethyl-2,5-dihydrobenzo[b]oxepine-7-carboxamide], the IC50 was over 1000 nM.

(Values after patent US9822103B2, “Inhibitors of lysine methyl transferase” (priority 2013, dated 2017).)
